Assay results published in US20240368214A1, “POSITIVE NMDA-MODULATING COMPOUNDS AND METHODS OF USE THEREOF” (SAGE THERAPEUTICS, INC., priority 2021, published 2024).
Where two headings read alike, the source gives them in different places.

Target: T1, recombinant human GluN1/GluN2A receptor (Homo sapiens, UniProt Q05586+Q12879)
T1 construct: expressed in transfected cells; host or cells: HEK293, tetracycline-inducible expression
Assay: Whole-cell patch clamp of mammalian cells (Syncropatch 384i), NMDA modulation
Type: cell-based
Settings: HEK293 cells, human GluN1/GluN2A, glutamate 1 μM / glycine 100 μM, -80 mV, peak amplitude increase; for EC50: read-out: EC50
Description: Whole-Cell Patch Clamp of Mammalian Cells (Syncropatch 384i (Nanion Technologies))
Whole-cell patch clamp electrophysiology was used to investigate the effects of compounds on GluN1/GluN2A N-methyl-D-aspartate (NMDA) glutamate receptors expressed in mammalian cells.
Human embryonic kidney (HEK293) cells expressing the recombinant human GluN1/GluN2A receptor under the control of a tetracycline-inducible expression system were used. Cells were maintained in Dulbecco's Modified Eagle's Medium (DMEM) with 1% glutamine, 10% Tetracycline System Approved fetal bovine serum (FBS), and NMDA inhibitors. Cells were cultured in a humidified 5% CO2 incubator at 37° C. Cells were induced with 50 ng/ml tetracycline 18-24 hours prior to testing. A cocktail of channel blockers was added to the media to prevent cell death.
Cells were 60-80% confluent at the time of harvest. Cells were detached from the flask TrypLE Enzyme Express (Thermo Fisher) at 37° C., and then cold extracellular solution was added to the flask, followed by incubation at 4° C. and then trituration of the cells. The cell solution was then placed on a shaker on the Syncropatch platform at 10° C. with a shake speed of a minimum 200 rpm for at least 30 minutes prior to testing.
Extracellular (EC) solution (in mM) —140 NaCl, 4 KCl, 5 CaCl2, 10 HEPES, 5 Glucose, pH 7.4 with NaOH. All external solutions contained 0.2% DMSO and 0.01% Kolliphor® EL (C5135, Sigma) throughout the experiment.
Intracellular (IC) solution (in mM) —120 CsF, 10 mM EGTA, 10 NaCl, 10 HEPES, 4 NaATP, 2 MgCl2, pH 7.2 with CsOH.
First, the DMSO Master Plate was prepared, in which the DMSO stock of each test compound was serially diluted in 100% DMSO to 1000× the final assay concentration. Immediately prior to assay testing, the compounds were diluted 1:100 by transferring solutions from the DMSO Mast Plate to the Intermediate Plate pre-filled with EC solution using a Biomek FX automated liquid handling system. Compounds were then diluted further with extracellular solution into two pre-incubation plates—1) compound from the Intermediate Plate was mixed with EC solution at a 1:5 dilution to create a 2× Compound Pre-Incubation Plate which was diluted a further 1:2 when added to the Syncropatch for the initial compound pre-incubation. And 2) compound from the Intermediate plate was mixed with EC solution at a 1:10 Dilution to create the 1× Compound Pre-Incubation Plate, which was used for subsequent compound pre-incubations. Finally, a Compound+Agonist Plate was prepared by mixing compound from the 2× Compound Pre-Incubation Plate with 2× concentration of co-agonists in a 1:1 ratio.
Each experiment sequentially included cell catching, sealing, whole-cell formation, liquid application, recording and data acquisition. Whole-cell patch clamp recordings were performed using multi-hole high resistance chips on the SyncroPatch 384i (Nanion Technologies). A steady-state voltage pulse at -80 mV was applied throughout the assay and a 10 second recording window was triggered around 1 second prior to application of co-agonists. Currents were leak corrected and sampled at 5 kHz.
A fast application was used, in which 5 μl co-agonist was rapidly applied at a speed of 30 μl/s and then rapidly removed from the well. To test for modulator activity, the co-agonists glutamate (1 μM) and glycine (100 μM) were applied three times to show activation reproducibility, followed by 120 seconds pre-incubation of test compound alone. The test compound was then re-applied in the presence of co-agonists two times. This was followed by application of the agonist alone, although test compound may not be fully washed from the well prior to this step. Finally, a saturating concentration of co-agonists (glutamate 100 μM/glycine 100 μM) was applied.
The voltage protocol generation data collection and analysis were performed on PatchControll384 and DataControll384. […]

T1 sequence (Q12879 23-1464, other chains not shown): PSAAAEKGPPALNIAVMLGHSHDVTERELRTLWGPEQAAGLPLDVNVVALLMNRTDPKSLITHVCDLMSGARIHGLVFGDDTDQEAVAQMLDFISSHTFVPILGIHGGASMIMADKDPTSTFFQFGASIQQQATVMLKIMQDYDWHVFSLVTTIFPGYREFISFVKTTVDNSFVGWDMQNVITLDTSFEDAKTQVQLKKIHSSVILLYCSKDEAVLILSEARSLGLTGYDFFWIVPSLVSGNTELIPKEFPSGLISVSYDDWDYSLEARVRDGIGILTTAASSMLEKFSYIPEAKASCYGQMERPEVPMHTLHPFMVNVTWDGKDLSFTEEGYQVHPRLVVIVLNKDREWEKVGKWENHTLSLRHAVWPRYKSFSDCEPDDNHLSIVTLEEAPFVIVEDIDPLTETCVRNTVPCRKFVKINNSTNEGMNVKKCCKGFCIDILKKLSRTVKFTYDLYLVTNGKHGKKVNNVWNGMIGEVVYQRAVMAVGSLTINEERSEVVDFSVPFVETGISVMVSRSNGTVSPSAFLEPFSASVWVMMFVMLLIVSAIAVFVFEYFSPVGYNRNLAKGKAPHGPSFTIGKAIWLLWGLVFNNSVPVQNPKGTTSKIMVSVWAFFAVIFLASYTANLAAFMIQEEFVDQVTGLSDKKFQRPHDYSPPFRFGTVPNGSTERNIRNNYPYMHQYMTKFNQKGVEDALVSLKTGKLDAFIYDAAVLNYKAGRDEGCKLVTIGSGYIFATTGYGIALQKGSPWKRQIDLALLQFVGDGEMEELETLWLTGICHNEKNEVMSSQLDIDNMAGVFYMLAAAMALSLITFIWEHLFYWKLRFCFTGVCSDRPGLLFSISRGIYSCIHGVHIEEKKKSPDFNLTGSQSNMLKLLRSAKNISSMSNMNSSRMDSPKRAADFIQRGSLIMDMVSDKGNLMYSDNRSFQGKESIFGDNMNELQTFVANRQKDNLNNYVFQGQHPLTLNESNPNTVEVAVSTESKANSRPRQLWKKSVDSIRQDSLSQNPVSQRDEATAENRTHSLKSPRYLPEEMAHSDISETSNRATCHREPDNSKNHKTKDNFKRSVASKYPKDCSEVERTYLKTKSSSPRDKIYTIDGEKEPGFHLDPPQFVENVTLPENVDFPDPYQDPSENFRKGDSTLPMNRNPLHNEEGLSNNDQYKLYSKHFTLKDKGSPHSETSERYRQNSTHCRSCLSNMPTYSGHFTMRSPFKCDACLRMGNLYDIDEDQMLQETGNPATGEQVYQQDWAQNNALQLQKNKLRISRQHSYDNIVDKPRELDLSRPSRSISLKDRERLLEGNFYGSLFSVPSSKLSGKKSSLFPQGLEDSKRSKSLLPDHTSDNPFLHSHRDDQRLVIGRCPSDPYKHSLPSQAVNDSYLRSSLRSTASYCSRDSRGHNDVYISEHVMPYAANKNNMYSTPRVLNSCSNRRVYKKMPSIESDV

Emax (Table D-2)	EC50 (Table D-2)	SMILES	EC50 (Table A-2)	Emax (Table A-2)
–	–	CC[C@]1(O)CC[C@@]2(C)[C@@H](CC[C@@H]3[C@@H]2CC[C@]2(C)[C@@H](C(CC[C@@H](O)C(C)C)C(F)(F)F)CC[C@@H]32)C1 (stereo in doubt) [Compound A-19, (3S,5S,8R,9S,10S,13S,14S,17R)-3-ethyl-10,13-dimethyl-17-((2R,5R)-1,1,1-trifluoro-5-hydroxy-6-methylheptan-2-yl)hexadecahydro-1H-cyclopenta[a]phenanthren-3-ol]	> 1 µM	–
100 to 200%	> 1 µM	CCC1(O)CCC[C@@]2(C)[C@@H](CC[C@@H]3[C@@H]2CC[C@]2(C)[C@@H]([C@H](C)CC[C@](C)(O)C(F)(F)F)CC[C@@H]32)C1 (stereo in doubt) [Compound D-8, (1R,3aS,3bR,5aS,7S,10aS,10bS,12aR)-7-ethyl-10a,12a-dimethyl-1-((2R,5S)-6,6,6-trifluoro-5-hydroxy-5-methylhexan-2-yl)octadecahydrocyclohepta[a]cyclopenta[f]naphthalen-7-ol]	–	–
–	–	CC[C@H](CCCC(C)(C)O)[C@H]1CC[C@H]2[C@@H]3CC[C@H]4C[C@](O)(CC)CC[C@]4(C)[C@H]3CC[C@]12C [Compound A-1, (3S,5S,8R,9S,10S,13R,14S,17R)-3-ethyl-17-((R)-7-hydroxy-7-methyloctan-3-yl)-10,13-dimethylhexadecahydro-1H-cyclopenta[a]phenanthren-3-ol]	0.001 to 0.1 µM	100 to 200%
–	–	CC[C@H](CC[C@@](C)(O)C(F)(F)F)[C@H]1CC[C@H]2[C@@H]3CC[C@H]4C[C@](O)(CC)CC[C@]4(C)[C@H]3CC[C@]12C [Compound A-2, (3S,5S,8R,9S,10S,13R,14S,17R)-3-ethyl-10,13-dimethyl-17-((3R,6R)-7,7,7-trifluoro-6-hydroxy-6-methylheptan-3-yl)hexadecahydro-1H-cyclopenta[a]phenanthren-3-ol]	0.5 to 1 µM	100 to 200%
–	–	CC[C@H](CC[C@](C)(O)C(F)(F)F)[C@H]1CC[C@H]2[C@@H]3CC[C@H]4C[C@](O)(CC)CC[C@]4(C)[C@H]3CC[C@]12C [Compound A-3, (3S,5S,8R,9S,10S,13R,14S,17R)-3-ethyl-10,13-dimethyl-17-((3R,6S)-7,7,7-trifluoro-6-hydroxy-6-methylheptan-3-yl)hexadecahydro-1H-cyclopenta[a]phenanthren-3-ol]	0.001 to 0.1 µM	> 200%
–	–	CC[C@]1(O)CC[C@@]2(C)[C@@H](CC[C@@H]3[C@@H]2CC[C@]2(C)[C@@H]([C@H](F)CC[C@H](O)C(C)C)CC[C@@H]32)C1 [Compound A-4, (3S,5S,8R,9S,10S,13S,14S,17S)-3-ethyl-17-((1R,4S)-1-fluoro-4-hydroxy-5-methylhexyl)-10,13-dimethylhexadecahydro-1H-cyclopenta[a]phenanthren-3-ol]	0.001 to 0.1 µM	> 200%
–	–	CC[C@]1(O)CC[C@@]2(C)[C@@H](CC[C@@H]3[C@@H]2CC[C@]2(C)[C@@H]([C@H](F)CC[C@@H](O)C(C)C)CC[C@@H]32)C1 [Compound A-5, (3S,5S,8R,9S,10S,13S,14S,17S)-3-ethyl-17-((1R,4R)-1-fluoro-4-hydroxy-5-methylhexyl)-10,13-dimethylhexadecahydro-1H-cyclopenta[a]phenanthren-3-ol]	0.001 to 0.1 µM	> 200%
–	–	CC[C@]1(O)CC[C@@]2(C)[C@@H](CC[C@@H]3[C@@H]2CC[C@]2(C)[C@@H]([C@@H](CC[C@@H](O)C(C)C)OC)CC[C@@H]32)C1 [Compound A-6, (3S,5S,8R,9S,10S,13S,14S,17S)-3-ethyl-17-((1R,4R)-4-hydroxy-1-methoxy-5-methylhexyl)-10,13-dimethylhexadecahydro-1H-cyclopenta[a]phenanthren-3-ol]	0.1 to 0.5 µM	> 200%
–	–	CC[C@]1(O)CC[C@@]2(C)[C@@H](CC[C@@H]3[C@@H]2CC[C@]2(C)[C@@H]([C@@H](CC[C@H](O)C(C)C)OC)CC[C@@H]32)C1 [Compound A-7, (3S,5S,8R,9S,10S,13S,14S,17S)-3-ethyl-17-((1R,4S)-4-hydroxy-1-methoxy-5-methylhexyl)-10,13-dimethylhexadecahydro-1H-cyclopenta[a]phenanthren-3-ol]	0.1 to 0.5 µM	> 200%
–	–	CC[C@]1(O)CC[C@@]2(C)[C@@H](CC[C@@H]3[C@@H]2CC[C@]2(C)[C@@H](C(C#N)CCCC(C)(C)O)CC[C@@H]32)C1 (stereo partly drawn) [Compound A-8, 2-((3S,5S,8R,9S,10S,13S,14S,17R)-3-ethyl-3-hydroxy-10,13-dimethylhexadecahydro-1H-cyclopenta[a]phenanthren-17-yl)-6-hydroxy-6-methylheptanenitrile]	0.001 to 0.1 µM	100 to 200%
–	–	CC[C@]1(O)CC[C@@]2(C)[C@@H](CC[C@@H]3[C@@H]2CC[C@]2(C)[C@@H]([C@H](C#N)CCCC(C)(C)O)CC[C@@H]32)C1 [Compound A-9, (R)-2-((3S,5S,8R,9S,10S,13S,14S,17R)-3-ethyl-3-hydroxy-10,13-dimethylhexadecahydro-1H-cyclopenta[a]phenanthren-17-yl)-6-hydroxy-6-methylheptanenitrile]	0.001 to 0.1 µM	> 200%
–	–	CC[C@]1(O)CC[C@@]2(C)[C@@H](CC[C@@H]3[C@@H]2CC[C@]2(C)[C@@H]([C@@H](C#N)CCCC(C)(C)O)CC[C@@H]32)C1 [Compound A-9a]	0.001 to 0.1 µM	< 100%
–	–	CC[C@]1(O)CC[C@@]2(C)[C@@H](CC[C@@H]3[C@@H]2CC[C@]2(C)[C@@H]([C@@H](CCCC(C)(C)O)OC)CC[C@@H]32)C1 [Compound A-10, (3S,5S,8R,9S,10S,13S,14S,17S)-3-ethyl-17-((R)-5-hydroxy-1-methoxy-5-methylhexyl)-10,13-dimethylhexadecahydro-1H-cyclopenta[a]phenanthren-3-ol]	0.1 to 0.5 µM	100 to 200%
–	–	CCO[C@H](CC[C@H](O)C(C)C)[C@H]1CC[C@H]2[C@@H]3CC[C@H]4C[C@](O)(CC)CC[C@]4(C)[C@H]3CC[C@]12C [Compound A-11, (3S,5S,8R,9S,10S,13S,14S,17S)-17-((1R,4S)-1-ethoxy-4-hydroxy-5-methylhexyl)-3-ethyl-10,13-dimethylhexadecahydro-1H-cyclopenta[a]phenanthren-3-ol]	> 1 µM	–
–	–	CCO[C@H](CC[C@H](O)C(C)C)[C@H]1CC[C@H]2[C@@H]3CC[C@@H]4C[C@](O)(CC)CC[C@]4(C)[C@H]3CC[C@]12C [Compound A-11a, (3S,5R,8R,9S,10S,13S,14S,17S)-17-((1R,4S)-1-ethoxy-4-hydroxy-5-methylhexyl)-3-ethyl-10,13-dimethylhexadecahydro-1H-cyclopenta[a]phenanthren-3-ol]	> 1 µM	< 100%
–	–	CC[C@]1(O)CC[C@@]2(C)C(=CC[C@H]3[C@@H]4CC[C@H]([C@@H](CCCC(C)(C)O)OC)[C@@]4(C)CC[C@@H]32)C1 [Compound A-12, (3S,8S,9S,10R,13S,14S,17S)-3-ethyl-17-((R)-5-hydroxy-1-methoxy-5-methylhexyl)-10,13-dimethyl-2,3,4,7,8,9,10,11,12,13,14,15,16,17-tetradecahydro-1H-cyclopenta[a]phenanthren-3-ol]	0.001 to 0.1 µM	100 to 200%
